Data set [1] relates to HIV-IIIb. Kind of data set: Test A: Antiviral Assay in MT4 Cells. To be noted: Human immunodeficiency virus 1, IIIB, MT4, 120 h; for inhibition at 0.2 µM: read-out: % inhibition at 0.2 μM; for inhibition at 2 µM: read-out: % inhibition at 2 μM. It counts as cell-based, HIV-1. The protocol: Test A: Antiviral Assay in MT4 Cells
(§1) MT-4 cells were next mixed with HIV-IIIb at an m.o.i of 0.003 for 1 hour, after which time 35 μL of virus/cell mixture (2000 cells) was immediately added to each well containing 40 μL of diluted compound. The plates were then incubated at 37° C. for 5 days. […] Cell lysis was carried out by incubating at room temperature for 10 min and then chemiluminescence was read.

Data set [2] in a line: Test B: Cytotoxicity Assay. It counts as cell-based. The conditions noted are these: human, uninfected MT-4 cells, same protocol as Test A. Here is the method: as §1
Test B: Cytotoxicity Assay
Compound cytotoxicity and the corresponding CC50 values was determined using the same protocol as described in the antiviral assay (Test A) except that uninfected cells were used.

Our source for the inhibition and CC50 values is patent US20140303164A1, “THERAPEUTIC COMPOUNDS” (Gilead Sciences, Inc., priority 2013, published 2014).

What is called inhibition is the drop in the measured response relative to a control, in per cent. As a reminder, the CC50 is the concentration giving 50% cytotoxicity. Read a high CC50 as lower toxicity to the cells.

As to `CN1CCN(C(=O)Nc2nn(C)c3c(-c4ccc(C#CC(C)(C)O)nc4[C@H](Cc4cc(F)cc(F)c4)NC(=O)Cn4nc(C(F)(F)F)c5c4C(F)(F)[C@@H]4C[C@H]54)cccc23)CC1` [Compound 51, N-(7-(2-((S)-1-(2-((3bS,4aR)-5,5-difluoro-3-(trifluoromethyl)-3b,4,4a,5-tetrahydro-1H-cyclopropa[3,4]cyclopenta[1,2-c]pyrazol-1-yl)acetamido)-2-(3,5-difluorophenyl)ethyl)-6-(3-hydroxy-3-methylbut-1-yn-1-yl)pyridin-3-yl)-1-methyl-1H-indazol-3-yl)-4-methylpiperazine-1-carboxamide], in data set [1], the inhibition at 0.2 µM was found to be 95% and the inhibition at 2 µM was determined as 95%. In data set [2], this compound yielded a CC50 at 5 days of 11.1 µM.
In the case of `CCN1CCN(CC(=O)N[C@@H](Cc2cc(F)cc(F)c2)c2nc(C#CC(C)(C)O)ccc2-c2ccc(Cl)c3c(NS(C)(=O)=O)nn(C)c23)CC1` [Compound 197, (S)—N-(1-(3-(4 chloro-1-methyl-3-(methylsulfonamido)-1H-indazol-7-yl)-6-(3-hydroxy-3-methylbut-1-yn-1-yl)pyridin-2-yl)-2-(3,5-difluorophenyl)ethyl)-2-(4-ethylpiperazin-1-yl)acetamide], the inhibition at 2 µM in data set [1] amounted to 63%. The compound also yielded a CC50 at 5 days in data set [2] of 15.4 µM.
For the compound `Cc1cc2ncn(CC(=O)N[C@@H](Cc3cc(F)cc(F)c3)c3nc(C#CC(C)(C)O)ccc3-c3ccc(Cl)c4c(NS(C)(=O)=O)nn(C)c34)c2cc1C` [Compound 199, (S)—N-(1-(3-(4 chloro-1-methyl-3-(methylsulfonamido)-1H-indazol-7-yl)-6-(3-hydroxy-3-methylbut-1-yn-1-yl)pyridin-2-yl)-2-(3,5-difluorophenyl)ethyl)-2-(5,6-dimethyl-1H-benzo[d]imidazol-1-yl)acetamide], in data set [1], the inhibition at 0.2 µM stood at 95% and the inhibition at 2 µM came out at 95%. For the same compound, it took 22.5 µM to reach half-maximal cytotoxicity in data set [2] (CC50 at 5 days).
With `Cn1nc(NS(C)(=O)=O)c2c(Cl)ccc(-c3ccc(C#CC(C)(C)O)nc3[C@H](Cc3cc(F)cc(F)c3)NC(=O)Cn3nc(Cl)c4c3C(F)(F)[C@@H]3C[C@H]43)c21` [Compound 149, N—((S)-1-(3-(4-chloro-1-methyl-3-(methylsulfonamido)-1H-indazol-7-yl)-6-(3-hydroxy-3-methylbut-1-yn-1-yl)pyridin-2-yl)-2-(3,5-difluorophenyl)ethyl)-2-((3bS,4aR)-3-chloro-5,5-difluoro-3b,4,4a,5-tetrahydro-1H-cyclopropa[3,4]cyclopenta[1,2-c]pyrazol-1-yl)acetamide], in data set [1], the inhibition at 0.2 µM is 86% and the inhibition at 2 µM amounted to 86%. Also, in data set [2], the midpoint of cytotoxicity, the CC50 at 5 days, lay at 26.7 µM.
Consider `COC(=O)Nc1nn(CC(=O)N[C@@H](Cc2cc(F)cc(F)c2)c2nc(C#CC(C)(C)O)ccc2-c2ccc(Cl)c3c(NS(C)(=O)=O)nn(C)c23)c2c1[C@H]1C[C@H]1C2(F)F` [Compound 162, methyl ((3bS,4aR)-1-(2-(((S)-1-(3-(4-chloro-1-methyl-3-(methylsulfonamido)-1H-indazol-7-yl)-6-(3-hydroxy-3-methylbut-1-yn-1-yl)pyridin-2-yl)-2-(3,5-difluorophenyl)ethyl)amino)-2-oxoethyl)-5,5-difluoro-3b,4,4a,5-tetrahydro-1H-cyclopropa[3,4]cyclopenta[1,2-c]pyrazol-3-yl)carbamate], for which, in data set [1], the inhibition at 0.2 µM stood at 81% and the inhibition at 2 µM stood at 81%. Moreover, the CC50 at 5 days in data set [2] is 22.4 µM.
On to `Cn1nc(NS(C)(=O)=O)c2c(Cl)ccc(-c3ccc(C#CC(C)(C)O)nc3[C@H](Cc3cc(F)cc(F)c3)NC(=O)Cn3nc(C(F)(F)F)cc3C3CC3)c21` [Compound 191, (S)—N-(1-(3-(4 chloro-1-methyl-3-(methylsulfonamido)-1H-indazol-7-yl)-6-(3-hydroxy-3-methylbut-1-yn-1-yl)pyridin-2-yl)-2-(3,5-difluorophenyl)ethyl)-2-(5-cyclopropyl-3-(trifluoromethyl)-1H-pyrazol-1-yl)acetamide], for which, in data set [1], the inhibition at 0.2 µM turned out to be 91% and the inhibition at 2 µM is 91%. This compound showed a CC50 at 5 days in data set [2] of 10.1 µM.
On to `Cn1nc(NS(C)(=O)=O)c2c(Cl)ccc(-c3ccc(C#CC(C)(C)O)nc3[C@H](Cc3cc(F)cc(F)c3)NC(=O)Cn3nc(C(F)F)c4c3C3CC3CC4)c21` (stereo partly drawn) [Compound 83, N—((S)-1-(3-(4-chloro-1-methyl-3-(methylsulfonamido)-1H-indazol-7-yl)-6-(3-hydroxy-3-methylbut-1-yn-1-yl)pyridin-2-yl)-2-(3,5-difluorophenyl)ethyl)-2-(3-(difluoromethyl)-5,5a,6,6a-tetrahydrocyclopropa[g]indazol-1(4H)-yl)acetamide], for which, in data set [1], the inhibition at 0.2 µM was found to be 94% and the inhibition at 2 µM is 94%. In data set [2], half-maximal cytotoxicity (CC50 at 5 days) was put at 9.94 µM.
Regarding `Cn1nc(NS(C)(=O)=O)c2c(F)ccc(-c3ccc(C#CC(C)(C)O)nc3[C@H](Cc3cc(F)cc(F)c3)NC(=O)Cn3nc(C(F)(F)F)c4c3C(F)(F)[C@@H]3C[C@H]43)c21` [Compound 132C, 2-((3bS,4aR)-5,5-difluoro-3-(trifluoromethyl)-3b,4,4a,5-tetrahydro-1H-cyclopropa[3,4]cyclopenta[1,2-c]pyrazol-1-yl)-N—((S)-2-(3,5-difluorophenyl)-1-(3-(4-fluoro-1-methyl-3-(methylsulfonamido)-1H-indazol-7-yl)-6-(3-hydroxy-3-methylbut-1-yn-1-yl)pyridin-2-yl)ethyl)acetamide], in data set [1], the inhibition at 0.2 µM came to 92% and the inhibition at 2 µM was found to be 92%. Further, in data set [2], half-maximal cytotoxicity (CC50 at 5 days) was put at 24.2 µM.
As to `CC(C)(O)C#Cc1ncc(-c2ccc(F)c(C(N)=O)c2)c([C@H](Cc2cc(F)cc(F)c2)NC(=O)Cn2nc(C(F)(F)F)c3c2C(F)(F)[C@@H]2C[C@H]32)n1` [Compound 23B, 5-(4-((S)-1-(2-((3bS,4aR)-5,5-difluoro-3-(trifluoromethyl)-3b,4,4a,5-tetrahydro-1H-cyclopropa[3,4]cyclopenta[1,2-c]pyrazol-1-yl)acetamido)-2-(3,5-difluorophenyl)ethyl)-2-(3-hydroxy-3-methylbut-1-yn-1-yl)pyrimidin-5-yl)-2-fluorobenzamide], in data set [1], the inhibition at 0.2 µM came out at 83% and the inhibition at 2 µM came out at 88%. The CC50 at 5 days in data set [2] is 7.62 µM.
In the same order, the values of `CC(C)n1cc(-c2ccc(-c3ccc(Cl)c4c(NS(C)(=O)=O)nn(C)c34)c([C@H](Cc3cc(F)cc(F)c3)NC(=O)Cn3nc(C(F)(F)F)c4c3C(F)(F)[C@@H]3C[C@H]43)n2)cn1` [Compound 174, N—((S)-1-(3-(4-chloro-1-methyl-3-(methylsulfonamido)-1H-indazol-7-yl)-6-(1-isopropyl-1H-pyrazol-4-yl)pyridin-2-yl)-2-(3,5-difluorophenyl)ethyl)-2-((3bS,4aR)-5,5-difluoro-3-(trifluoromethyl)-3b,4,4a,5-tetrahydro-1H-cyclopropa[3,4]cyclopenta[1,2-c]pyrazol-1-yl)acetamide] are 85%, 85% and over 53.2 µM.
